{
  "source": "patent US9192647B2",
  "about": "“Method for reversing recent-onset type 1 diabetes (T1D) by administering substance P (sP)” (priority 2013, dated 2015)",
  "key": {"pancreas [1]": {"test_system": "pancreas", "conditions": "intra-arterial injection, recent-onset diabetic mice, dose range 0.01-250 nmol/kg; cited from earlier work"}, "pancreas [2]": {"test_system": "pancreas", "assay": "large animal study of pancreatic sP injection via the celiac artery", "assay_type": "in vivo, dog", "procedure": "A large animal study in dogs has recently been completed, seeking evidence for sP-induced pancreas toxicity following pancreatic injection of sP via the celiac artery. […] The injections were conducted by the Sick Kids' clinical imaging team. Since this VanilloidGenetics-sponsored study is unlikely to be published by itself, excerpt imaging data are provided in the Protocol Addendum, showing the pancreas-selective, rapidly transient (˜7 min) sP effect as measured with a co-injected, inert blue dye marker. The short-lived, physiological sP responses (hyperemia→pancreas→selective hyperperfusion and extravasation→normal pancreas appearance) illustrate the core effects expected to be duplicated in T1D patients.\nA large animal study of pancreatic sP injection in dogs, using modern pancreatitis diagnostics is currently being conducted (Mansfield et al., J. Vet. Diagn. Invest. 23, 691-697 (2011)) and histopathology for the detection of possible pancreatitis lesions. Data are expected to be complete within about two weeks of this writing, in time for the anticipated Pre-CTA meeting. Dogs are a rational choice of large animal experimental model, since Dogs spontaneously develop pancreatitis, have successfully been used in studies of experimental pancreatitis and well tested diagnostics are available (Trivedi et al., J. Vet. Intern. Med. 25, 1241-1247 (2011))."}, "[3]": {"conditions": "earlier and current trials, literature and trials registry, cited from earlier work"}, "[4]": {"conditions": "cited from earlier work; for tissue half-life: in vivo"}, "pancreas [5]": {"test_system": "pancreas", "assay": "pancreas pathology / toxicity after intra-arterial sP injection in rodents", "assay_type": "in vivo, mouse", "from_the_text": "Both islets are surrounded by normal exocrine pancreas tissue without any lesions typical for pancreatitis.\nFor disease induction, the standard experimental pancreatitis model employs multiple high dose injections of the toxic secretagogue caerulein (Koh et al., J. Cell. Mol. Med. 15, 2139-2149 (2011))."}},
  "note": "Entries after “also recorded” stand apart in the source; their conditions may differ. Where two headings read alike, the source gives them in different places.",
  "data": [
    {"smiles": "CSCC[C@H](NC(=O)[C@H](CC(C)C)NC(=O)CNC(=O)[C@H](Cc1ccccc1)NC(=O)[C@H](Cc1ccccc1)NC(=O)[C@H](CCC(N)=O)NC(=O)[C@H](CCC(N)=O)NC(=O)[C@@H]1CCCN1C(=O)[C@H](CCCCN)NC(=O)[C@@H]1CCCN1C(=O)[C@@H](N)CCCN=C(N)N)C(N)=O", "note": "[sP, substance P]", "values": [
      {"measurement": "pancreas pathology consistent with pancreatitis", "setting": "pancreas [1]", "result": "has not been observed"},
      {"measurement": "tolerability in canine studies", "setting": "pancreas [2]; 10, 50, 100 or 250 nmol/kg BW", "result": "well tolerated"},
      {"measurement": "sP-induced pancreas toxicity in dogs", "setting": "pancreas [2]; celiac artery injection, study-relevant dose range, blood tests (>1200 assays) and histopathology", "result": "not pancreas toxic; also recorded: No drug-induced toxicity was found"},
      {"measurement": "adverse events of sP celiac injections", "setting": "pancreas [2]; entire canine study", "result": "without adverse events"},
      {"measurement": "toxicity / adverse events in human clinical sP trials", "setting": "[3]", "result": "without sP-attributable adverse events"},
      {"measurement": "toxicity / adverse events in human clinical sP trials", "setting": "[3]; listed as substance P", "result": "lack of toxicity"},
      {"measurement": "vascular half-life time", "setting": "[4]; as low as", "result": "< 30", "unit": "s"},
      {"measurement": "vascular half-life time", "setting": "[4]; in some locales", "result": "up to a minute"},
      {"measurement": "tissue half-life", "setting": "[4]", "result": "< 60", "unit": "s"},
      {"measurement": "tissue half-life", "setting": "[4]; listed as substance P", "result": "a minute or less"},
      {"measurement": "time to inactivation in tissue", "setting": "[4]; proteolytic degradation and binding to NK1R in tissue", "result": "within seconds"},
      {"measurement": "tolerability in rodent studies", "setting": "pancreas [5]; 10, 50, 100 or 250 nmol/kg BW", "result": "well tolerated"},
      {"measurement": "tissue damage or pancreatitis-like disease", "setting": "pancreas [5]; sP injection without caerulein", "result": "does not cause tissue damage or pancreatitis-like disease"},
      {"measurement": "sP pancreas toxicity in rodents", "setting": "pancreas [5]; without caerulein pretreatment", "result": "has not been observed"}
    ]}
  ]
}
